Source: patent US9370529B2, “Tannin inhibitors of HIV” (priority 2012, dated 2016)

What was measured:
[1] = system: CXCR4 tropic HIV NL4-3; assay: HIV-infection study in HeLa37 cells (HIV antigen-positive cell count, % control); assay type: cell-based, HIV-1; conditions: for TI (therapeutic index, cytotoxicity/antiviral activity): CC50/IC50; for IC50: Human immunodeficiency virus 1, NL43, HeLa37 cells, 40 h, MOI=0.01, FIG. 1/FIG. 2, read-out: IC50 (anti-HIV activity)
Protocol: Stocks of HIV-1 were generated by transfecting a 150 cm plate of 80% confluent HEK 293T cells with 75 μg of the HIV molecular clone pNL4-3 by using the CaPO4 procedure of F. L. Graham et al., J. Gen. Viol., 36, 59 (1977). Supernatants were collected at 48-h post-transfection, clarified to remove cell debris and frozen at −80° C. until needed. Virus production was assessed by reverse transcriptase activity in the viral stocks and by the single round of infection assay in HeLa37 cells described below. RT assays were performed as described by R. L. Wiley, PNAS USA, 83, 5038 (1986).
(§1) All extracts or fractions were resuspended in DMSO. 2.5×10^2 infectious particles of HIV (MOI=0.01) were combined with the concentrations of IA or IB noted in the figures. The amount of DMSO was adjusted so that equivalent concentrations of DMSO were used in all wells. […] The tannin and HIV mixture was added to 2.5×10^4 cells/well of HeLa37 cells in a 48-well format. The cells were maintained for 40 h at 37° C. in a CO2 incubator. Cells were fixed in 75% acetone/25% water and immunostained for HIV antigens with human anti-HIV antisera (1:500) followed by HRP-conjugated goat anti-human IgG (1:500). 3-amino-9-ethyl-carbazole was used as the horse radish peroxidase substrate. Plates were dried and wells were counted for the number of HIV antigen-positive cells.

[2] = Cell-viability study (ATPLite Assay); assay type: cell-based; conditions: human; HeLa37 cells, 40 h after treatment initiation
Protocol: HeLa37 cells were plated and treated with IA or IB as described above. Cell viability was monitored at 40 h after treatment initiation by ATPLite Assay (Packard Biosciences) per manufacturer's instructions.

[3] = system: CCR5 tropic HIV AD8; assay: HIV-infection study in HeLa37 cells, CCR5 tropic virus; assay type: cell-based; conditions: FIG. 2; equivalent concentrations
Protocol: as §1

Compound | TI (therapeutic index, cytotoxicity/antiviral activity) [1] | IC50 [1] [nM] | CC50 at 40 h [2] [nM] | Inhibition of CCR5 (AD8) tropic HIV strain [3] | Inhibition of CXCR4 (NL4-3) tropic HIV strain ([1]; FIG. 2) | Enhancement of the antiviral activity of AMD3100 ([1]; combination with 3 μM AMD3100, increasing concentrations of IB, HIV NL-4-3, FIG. 3)
CO[C@@H]1OC2COC(=O)c3cc(O)c(O)c(O)c3-c3c(cc(O)c(O)c3O)C(=O)O[C@H]2C(O)C1O (stereo partly drawn) [Tannin IA, (11aR,13S,14R,15R,15aS)-2,3,4,5,6,7,14,15-octahydroxy-13-methoxy-11,11a,13,14,15,15a-hexahydrodibenzo[g,i]pyrano[3,2-b][1,5]dioxacycloundecine-9,17-dione] | ~909 | ~110 | ~100000 | – | – | –
CO[C@@H]1OC2COC(=O)c3cc(O)c(O)c(O)c3-c3c(cc(O)c(O)c3O)C(=O)O[C@H]2C(OC(=O)c2cc(O)c(O)c(O)c2)C1OC(=O)c1cc(O)c(O)c(O)c1 (stereo partly drawn) [Tannin IB, (11aR,13S,14R,15S,15aR)-2,3,4,5,6,7-hexahydroxy-13-methoxy-9,17-dioxo-9,11,11a,13,14,15,15a,17-octahydrodibenzo[g,i]pyrano[3,2-b][1,5]dioxacycloundecine-14,15-diyl-bis (3,4,5-trihydroxybenzoate)] | about 900 | ~120 | > 100000 | effectively able to inhibit | effectively able to inhibit | more than a log
